Experiments:
colon fibroblasts [1] = assay: Nitrite concentration by Griess assay in fibroblast supernatants; assay type: cell-based, mouse; settings: recombinant IL-1α 1 μg/mL, 72 hours
Protocol: (§1) (A) Schematic illustration of APTKA organoids supernatant collection and treatment of colon fibroblasts from unchallenged wildtype C57BL/6 mice for 12 h followed by 3×2 Gy irradiation. Microscopic, proteomic & transcriptomic analysis were performed 72 h post first irradiation. (B) Microscopic captures of non-irradiated wildtype (WT) and APTKA conditioned fibroblasts. Remaining captures belong to irradiated fibroblasts: WT, IL-1α (1 μg/mL) stimulated WT, and APTKA conditioned media minus or plus anakinra (20 μg/mL) treated fibroblasts. Scale bars=200 μm. (C) Mass spectrometric analysis of matrisome profiles of 3×2 Gy irradiated (n=8) and non-irradiated (n=8) APTKA conditioned fibroblasts. […] (G) Immunoblot analysis of untreated and irradiated APTKA conditioned fibroblasts. Representative results from one experiment which has been independently repeated 2 times. (H) SA-ß gal staining of untreated and irradiated APTKA fibroblasts. Scale bars=100 μm. (I and J) p21 and pH2AX immunofluorescent staining of untreated and irradiated APTKA fibroblasts. Scale bars=[…]. Data are mean±SD. ** […] and *** p<0.001 by t-test. (K) Nitrite concentration determined by Griess assay in conditioned media from WT, APTK media, APTKA media, IL-1α (1 μg/mL) stimulated and APTKA plus anakinra (20 μg/mL) treated fibroblasts for 72 h (n=10 independent wells per group). […]

colon fibroblasts [2] = assay: Oxidative DNA damage by 8-OHdG immunofluorescence in fibroblasts; assay type: cell-based, mouse; settings: recombinant IL-1α 1 μg/mL, 72 hours
Protocol: as §1

recombinant IL-1α: recombinant cytokine used to stimulate fibroblasts
nitrite levels in fibroblast supernatants (colon fibroblasts [1]): significantly elevated
oxidative DNA damage (8-OHdG immunofluorescence) (colon fibroblasts [2]): increase in oxidative DNA damage

Reference: US20230365673A1, “MEANS FOR REDUCING RADIO- AND CHEMOTHERAPY RESISTANCE AND ADVERSE EFFECTS” (JOHANN WOLFGANG GOETHE-UNIVERSITÄT FRANKFURT AM MAIN, priority 2020, published 2023)
